The source made the active and inactive calls. The calls are words filed in the database; no cut-off is given here.
How the values were obtained:
Histamine H3 receptor [1] = biological target: Histamine H3 receptor (Rattus norvegicus, UniProt Q9QYN8); assay: Displacement of [3H]NAMH from rat histamine H3 receptor expressed in CHO cells; format: cell-based
Histamine H3 receptor [2] = biological target: T1, Histamine H3 receptor (Homo sapiens, UniProt Q9Y5N1); assay: Displacement of [3H]NAMH from human histamine H3 receptor expressed in CHO cells; format: cell-based
T1 sequence (Q9Y5N1 whole entry): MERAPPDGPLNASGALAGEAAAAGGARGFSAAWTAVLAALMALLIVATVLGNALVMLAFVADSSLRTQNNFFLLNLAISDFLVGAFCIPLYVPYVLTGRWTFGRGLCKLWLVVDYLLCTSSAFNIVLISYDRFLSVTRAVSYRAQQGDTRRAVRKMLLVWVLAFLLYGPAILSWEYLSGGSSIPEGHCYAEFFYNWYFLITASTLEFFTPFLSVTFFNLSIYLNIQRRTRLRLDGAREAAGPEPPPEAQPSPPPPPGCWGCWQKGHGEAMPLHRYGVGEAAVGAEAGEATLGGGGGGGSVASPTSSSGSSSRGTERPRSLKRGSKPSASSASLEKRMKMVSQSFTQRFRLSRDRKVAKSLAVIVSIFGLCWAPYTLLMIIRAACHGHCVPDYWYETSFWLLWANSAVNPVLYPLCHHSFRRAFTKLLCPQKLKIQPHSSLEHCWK

[3] = Volume of distribution in rat at […], iv; format: ADME, organism-based; settings: in vivo
Cytochrome P450 2D6 = Cytochrome P450 2D6 (Homo sapiens, UniProt P10635); assay: Inhibition of CYP2D6; format: ADME
Cytochrome P450 2D6, sequence (P10635 whole entry): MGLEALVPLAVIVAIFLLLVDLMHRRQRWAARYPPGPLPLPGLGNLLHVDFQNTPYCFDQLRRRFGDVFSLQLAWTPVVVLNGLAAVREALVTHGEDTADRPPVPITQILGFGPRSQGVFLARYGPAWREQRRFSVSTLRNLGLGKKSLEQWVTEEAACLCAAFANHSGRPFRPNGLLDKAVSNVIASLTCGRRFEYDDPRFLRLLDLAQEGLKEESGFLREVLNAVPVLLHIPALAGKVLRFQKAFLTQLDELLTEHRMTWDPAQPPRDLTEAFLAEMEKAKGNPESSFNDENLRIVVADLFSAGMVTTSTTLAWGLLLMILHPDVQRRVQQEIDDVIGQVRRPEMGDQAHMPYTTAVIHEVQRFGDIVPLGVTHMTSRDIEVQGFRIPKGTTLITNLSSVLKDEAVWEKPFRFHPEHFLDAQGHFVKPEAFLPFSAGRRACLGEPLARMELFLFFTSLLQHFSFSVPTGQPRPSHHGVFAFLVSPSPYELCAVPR

[4] = Clearance in rat at […], iv; format: ADME, organism-based; settings: in vivo
[5] = Oral bioavailability in rat at 5 mg/kg; format: ADME, organism-based; settings: in vivo
[6] = Ratio of drug level in brain to plasma in rat at 5 mg/kg, po measured after 6 hrs; format: ADME, organism-based; parameters: dose 5 mg/kg, route oral; settings: read-out: BPR
[7] = Half life in rat at […], iv; format: ADME, organism-based; settings: in vivo
Rattus norvegicus [8] = assay: Wake promoting activity in EEG/EMG Sprague-Dawley rat model assessed as sleep rebound at 10 to 30 mg/kg, ip; format: functional, organism-based
Cytochrome P450 2C19 = Cytochrome P450 2C19 (Homo sapiens, UniProt P33261); assay: Inhibition of CYP2C19; format: ADME
Cytochrome P450 2C19, sequence (P33261 whole entry): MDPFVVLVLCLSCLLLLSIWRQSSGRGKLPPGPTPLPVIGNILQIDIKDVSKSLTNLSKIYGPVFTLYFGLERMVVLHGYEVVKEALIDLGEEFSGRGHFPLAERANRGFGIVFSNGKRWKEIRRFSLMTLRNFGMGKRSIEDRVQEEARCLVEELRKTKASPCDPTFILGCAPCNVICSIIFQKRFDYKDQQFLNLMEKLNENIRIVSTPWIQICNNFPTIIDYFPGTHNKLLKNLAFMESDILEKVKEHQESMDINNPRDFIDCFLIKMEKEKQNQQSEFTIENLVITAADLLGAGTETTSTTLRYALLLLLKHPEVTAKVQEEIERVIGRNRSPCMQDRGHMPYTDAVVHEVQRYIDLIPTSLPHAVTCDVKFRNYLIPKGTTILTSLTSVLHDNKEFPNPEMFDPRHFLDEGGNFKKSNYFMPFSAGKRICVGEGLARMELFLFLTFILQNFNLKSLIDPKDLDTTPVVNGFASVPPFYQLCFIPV

[9] = Cmax in rat at 5 mg/kg, po; format: ADME, organism-based; parameters: dose 5 mg/kg, route oral; settings: in vivo
Histamine H3 receptor [10] = biological target: T1, Histamine H3 receptor; assay: Inverse agonist activity at human histamine H3 receptor by [35S]-GTPgammaS binding assay; format: functional
Cytochrome P450 1A2 = biological target: T2, Cytochrome P450 1A2 (Homo sapiens, UniProt P05177); assay: Inhibition of CYP1A2; format: ADME
T2 sequence (P05177 whole entry): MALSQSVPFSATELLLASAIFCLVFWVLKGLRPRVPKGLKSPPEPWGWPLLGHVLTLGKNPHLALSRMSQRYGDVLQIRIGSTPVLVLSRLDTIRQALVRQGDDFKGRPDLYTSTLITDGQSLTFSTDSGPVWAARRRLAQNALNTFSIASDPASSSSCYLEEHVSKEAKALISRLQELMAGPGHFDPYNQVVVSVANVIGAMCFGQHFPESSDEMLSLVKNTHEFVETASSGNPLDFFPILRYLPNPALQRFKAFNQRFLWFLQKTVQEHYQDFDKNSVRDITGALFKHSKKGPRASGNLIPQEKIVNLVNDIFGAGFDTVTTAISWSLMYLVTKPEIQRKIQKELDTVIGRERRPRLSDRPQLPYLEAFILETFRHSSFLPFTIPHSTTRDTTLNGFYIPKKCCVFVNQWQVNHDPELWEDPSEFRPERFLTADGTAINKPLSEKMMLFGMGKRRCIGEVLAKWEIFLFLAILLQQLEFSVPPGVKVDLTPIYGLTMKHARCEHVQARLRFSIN

Rattus norvegicus [11] = assay: Wake promoting activity in EEG/EMG Sprague-Dawley rat model measured up to 4 hrs post dosing; format: functional, organism-based
Rattus norvegicus [12] = assay: Inhibition of RAMH-induced dipsogenia in rat at 1 mg/kg, ip; format: functional, organism-based; parameters: dose 1 mg/kg
[13] = AUC in rat at 5 mg/kg, po; format: ADME, organism-based; parameters: dose 5 mg/kg, route oral; settings: plasma
Rattus norvegicus [14] = assay: Wake promoting activity in EEG/EMG Sprague-Dawley rat model assessed as wake time at 10 mg/kg, ip measured up to 4 hrs (reference value: 85 +/- 9 mins); format: functional; settings: route intraperitoneal
Cytochrome P450 2C9 = Cytochrome P450 2C9 (Homo sapiens, UniProt P11712); assay: Inhibition of CYP2C9; format: ADME
Cytochrome P450 2C9, sequence (P11712 whole entry): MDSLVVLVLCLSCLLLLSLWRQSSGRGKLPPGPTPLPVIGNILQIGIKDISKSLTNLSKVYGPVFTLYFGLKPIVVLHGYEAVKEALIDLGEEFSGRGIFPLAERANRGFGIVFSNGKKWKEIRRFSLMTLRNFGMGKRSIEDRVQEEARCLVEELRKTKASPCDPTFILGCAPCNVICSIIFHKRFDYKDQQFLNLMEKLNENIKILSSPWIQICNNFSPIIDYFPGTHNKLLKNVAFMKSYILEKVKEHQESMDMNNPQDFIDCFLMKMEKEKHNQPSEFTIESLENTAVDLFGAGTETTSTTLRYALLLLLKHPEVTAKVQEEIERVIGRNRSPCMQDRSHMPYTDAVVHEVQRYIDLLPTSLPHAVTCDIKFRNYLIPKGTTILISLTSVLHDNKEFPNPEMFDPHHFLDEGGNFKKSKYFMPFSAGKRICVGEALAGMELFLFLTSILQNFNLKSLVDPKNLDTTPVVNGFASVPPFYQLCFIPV

Rattus norvegicus [15] = assay: Wake promoting activity in EEG/EMG Sprague-Dawley rat model assessed as maximal cumulative wake surplus time at 10 to 30 mg/kg, ip measured after 9 hrs; format: functional; settings: dose mg/kg 10-30; route intraperitoneal
Cytochrome P450 3A4 = Cytochrome P450 3A4 (Homo sapiens, UniProt P08684); assay: Inhibition of CYP3A4; format: ADME
Cytochrome P450 3A4, sequence (P08684 whole entry): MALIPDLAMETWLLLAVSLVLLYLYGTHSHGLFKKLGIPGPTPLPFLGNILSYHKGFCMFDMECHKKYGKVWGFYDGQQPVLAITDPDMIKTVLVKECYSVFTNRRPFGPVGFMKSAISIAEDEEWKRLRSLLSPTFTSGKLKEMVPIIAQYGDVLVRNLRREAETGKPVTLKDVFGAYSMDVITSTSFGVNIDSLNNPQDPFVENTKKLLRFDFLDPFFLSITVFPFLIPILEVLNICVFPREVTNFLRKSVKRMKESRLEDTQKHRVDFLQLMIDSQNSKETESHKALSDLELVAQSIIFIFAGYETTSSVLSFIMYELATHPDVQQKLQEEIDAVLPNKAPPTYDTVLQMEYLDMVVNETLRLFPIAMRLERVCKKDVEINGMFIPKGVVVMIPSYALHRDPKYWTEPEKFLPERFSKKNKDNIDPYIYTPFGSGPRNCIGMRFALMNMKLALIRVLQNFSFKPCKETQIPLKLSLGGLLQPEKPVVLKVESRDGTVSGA

Rattus norvegicus [16] = assay: Wake promoting activity in EEG/EMG Sprague-Dawley rat model at 30 mg/kg, ip measured after 3.5 hrs relative to control; format: functional, organism-based; parameters: dose 30 mg/kg
Histamine H3 receptor [17] = biological target: T1, Histamine H3 receptor; assay: Antagonist activity at human histamine H3 receptor assessed as inhibition of [35S]-GTPgammaS binding; format: functional
Rattus norvegicus [18] = assay: Wake promoting activity in EEG/EMG Sprague-Dawley rat model assessed as wake time at 30 mg/kg, ip measured up to 4 hrs (reference value: 85 +/- 9 mins); format: functional; settings: route intraperitoneal
Rattus norvegicus [19] = assay: Wake promoting activity in EEG/EMG Sprague-Dawley rat model assessed as cumulative wake time at 30 mg/kg, ip measured after 5 hrs relative to control; format: functional; settings: route intraperitoneal

Histamine H3 receptor (Rattus norvegicus, UniProt Q9QYN8), sequence (Q9QYN8 whole entry): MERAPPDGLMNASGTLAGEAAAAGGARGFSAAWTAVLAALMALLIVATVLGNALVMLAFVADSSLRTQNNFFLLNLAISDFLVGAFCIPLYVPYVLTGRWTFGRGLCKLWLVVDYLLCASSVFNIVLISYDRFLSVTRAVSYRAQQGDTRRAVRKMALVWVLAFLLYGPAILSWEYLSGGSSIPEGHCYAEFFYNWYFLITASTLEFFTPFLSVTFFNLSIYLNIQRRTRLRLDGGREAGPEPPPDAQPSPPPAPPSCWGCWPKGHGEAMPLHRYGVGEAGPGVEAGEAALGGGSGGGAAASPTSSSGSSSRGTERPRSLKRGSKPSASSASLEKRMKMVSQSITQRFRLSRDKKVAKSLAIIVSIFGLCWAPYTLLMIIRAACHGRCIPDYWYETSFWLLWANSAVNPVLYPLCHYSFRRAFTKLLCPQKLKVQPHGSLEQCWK

Compound: C[C@@H]1CCCN1CCCOc1ccc(C(=O)CN2CCC(C(F)(F)F)CC2)cc1
- Ki (Histamine H3 receptor [1]): 9.1 nM
- Ki (Histamine H3 receptor [2]): 2.5 nM

Compound: CCOC(=O)N1CCN(CC(=O)c2ccc(OCCCN3CCC[C@H]3C)cc2)CC1
- Vd [3]: 2.8 L/kg
- IC50 (Cytochrome P450 2D6): 5000 nM
- clearance [4]: 16 mL/min/kg
- Ki (Histamine H3 receptor [1]): 23 nM
- bioavailability [5]: 33%
- Kp at 6 h [6]: 2.4
- half-life [7]: 2.1 h
- Ki (Histamine H3 receptor [2]): 4 nM

Compound: C[C@@H]1CCCN1CCCOc1ccc(C(=O)CN2CCN(C(=O)c3ccc(F)cc3)CC2)cc1
- Ki (Histamine H3 receptor [1]): 5.8 nM
- Ki (Histamine H3 receptor [2]): 0.6 nM

Compound: CC(=O)N1CCN(CC(=O)c2ccc(OCCCN3CCC[C@H]3C)cc2)CC1
- Ki (Histamine H3 receptor [1]): 30 nM
- Kp at 6 h [6]: < 0.6
- Ki (Histamine H3 receptor [2]): 2.8 nM

Compound: C[C@@H]1CCCN1CCCOc1ccc(C(=O)CN2CCC(C#N)CC2)cc1
- Ki (Histamine H3 receptor [1]): 23 nM
- Ki (Histamine H3 receptor [2]): 6.3 nM

Compound: C[C@@H]1CCCN1CCCOc1ccc(C(=O)CN2CCN(S(C)(=O)=O)CC2)cc1
- Ki (Histamine H3 receptor [1]): 26 nM
- Kp at 6 h [6]: < 0.6
- Ki (Histamine H3 receptor [2]): 3.4 nM

Compound: C[C@@H]1CCCN1CCCOc1ccc(C(=O)CN2CCN(C(=O)c3cc4ccccc4s3)CC2)cc1
- Ki (Histamine H3 receptor [1]): 4 nM
- Ki (Histamine H3 receptor [2]): 1.2 nM

Compound: C[C@@H]1CCCN1CCCOc1ccc(C(=O)CN2CCN(C(=O)c3cccs3)CC2)cc1
- Ki (Histamine H3 receptor [1]): 9 nM
- Ki (Histamine H3 receptor [2]): 4.2 nM

Compound: C[C@@H]1CCCN1CCCOc1ccc(C(=O)CN2CCN(C(=O)C(F)(F)F)CC2)cc1
- Ki (Histamine H3 receptor [1]): 17 nM
- Ki (Histamine H3 receptor [2]): 2.1 nM

Compound: C[C@@H]1CCCN1CCCOc1ccc(C(=O)CN2CCC(F)(F)CC2)cc1
- Activity (Rattus norvegicus [8]): inactive
- Vd [3]: 2.2 L/kg
- IC50 (Cytochrome P450 2C19): > 30000 nM
- Cmax [9]: 66 ng/mL
- EC50 (Histamine H3 receptor [10]): 1.8 nM
- IC50 (Cytochrome P450 1A2): > 30000 nM
- IC50 (Cytochrome P450 2D6): > 30000 nM
- Activity (Rattus norvegicus [11]): Dose-dependent effect
- inhibition (Rattus norvegicus [12]): Active
- AUC [13]: 266 ng·h/mL
- clearance [4]: 53 mL/min/kg
- Ki (Histamine H3 receptor [1]): 43 nM
- Time (Rattus norvegicus [14]): 150 min
- IC50 (Cytochrome P450 2C9): > 30000 nM
- bioavailability [5]: 15%
- Kp at 6 h [6]: 25
- Time (Rattus norvegicus [15]): 46 min
- half-life [7]: 0.5 h
- IC50 (Cytochrome P450 3A4): > 30000 nM
- Activity (Rattus norvegicus [16]): Active
- Kb (Histamine H3 receptor [17]): 3.7 nM
- Time (Rattus norvegicus [18]): 195 min
- Time (Rattus norvegicus [19]): 113 min
- Ki (Histamine H3 receptor [2]): 11 nM
